Source: US8158670B2 (priority 1996, dated 2012)

System: Vascular smooth muscle cells (BO54)
Assay: Scratch-migration assay
Type: cell-based, baboon
Parameters: key to Migration Grade in the Cleared Area of the Well / Migration Grade in an Undisturbed Region of the Well: −=no migration; +1=minimal; +2=mild; +3=moderate; +4=marked (maximum density; limit of cell contact inhibition) migration
Method: Vascular smooth muscle cells (BO54) were derived from explants of baboon aortic smooth muscle, as described in Example 10. The cells were grown in flat bottom, six well tissue culture plates, which hold about 5 ml of medium. The vascular smooth muscle cells were plated at 200,000 cells/well and placed at 37° C. in a humidified 5% CO2 incubator for 18 hours. The wells were then scratched with a sterile portion of a single edge razor blade that was held by clamp or pliers and was brought aseptically into contact with the bottom of the well at a 90° angle. The cells from a small area along the scratch were removed by a sterile cotton tipped applicator while the blade was in contact with the bottom of the well. After incubation, the presence of cells in the “scratched” area is indicative of cell migration across the scratch line.
Briefly, a stock solution of cytochalasin B (Sigma Chemical Co.) in dimethyl sulfoxide (DMSO) at 1 mg/ml was prepared. Test dilutions of cytochalasin B or control medium were added. Each experiment included two sets of plates:
A set: Test agent exposure for 1, 3, 6, 8 and 10 days only; and
B set: Test agent exposure for 1, 3, 6, 8 and 10 days, followed by a seven day recovery time with control medium.
Both sets of plates were fixed (10% formalin in PBS) and stained (0.02% crystal violet) at the end of the timed exposures. Test concentrations for cytochalasin B were 1, 0.1 and 0.01 μg/ml, and a negative medium control was included. Fresh medium and drug were supplied 3 times per week.
In this Table, “M” indicates Migration Grade. wherein −=no migration; +1=minimal; +2=mild; +3=moderate; and +4=marked (maximum density; limit of cell contact inhibition) migration of vascular smooth muscle cells into the cleared area adjacent to the scratch. In this Table, “T” denotes a morphological Toxicity Grade, wherein −=no toxicity; +1=minimal; +2=mild; +3=moderate; and +4=marked toxicity. The migration results are expressed as “Grade in the Cleared Area of the Well/Grade in an Undisturbed Region of the Well.” The toxicity values represent a grade for all cells in each well.

[1] = Day 1, Continuous Exposure, 0.01 μg/mL
[2] = Day 1, Continuous Exposure, 0.1 μg/mL
[3] = Day 1, Continuous Exposure, 1.0 μg/mL
[4] = Day 1 exposure, 7-day Recovery Post Exposure, 0.01 μg/mL
[5] = Day 1 exposure, 7-day Recovery Post Exposure, 0.1 μg/mL
[6] = Day 1 exposure, 7-day Recovery Post Exposure, 1.0 μg/mL
[7] = Day 3, Continuous Exposure, 0.01 μg/mL
[8] = Day 3, Continuous Exposure, 0.1 μg/mL
[9] = Day 3, Continuous Exposure, 1.0 μg/mL
[10] = Day 3 exposure, 7-day Recovery Post Exposure, 0.01 μg/mL
[11] = Day 3 exposure, 7-day Recovery Post Exposure, 0.1 μg/mL
[12] = Day 3 exposure, 7-day Recovery Post Exposure, 1.0 μg/mL
[13] = Day 6, Continuous Exposure, 0.01 μg/mL
[14] = Day 6, Continuous Exposure, 0.1 μg/mL
[15] = Day 6, Continuous Exposure, 1.0 μg/mL
[16] = Day 6 exposure, 7-day Recovery Post Exposure, 0.01 μg/mL
[17] = Day 6 exposure, 7-day Recovery Post Exposure, 0.1 μg/mL
[18] = Day 6 exposure, 7-day Recovery Post Exposure, 1.0 μg/mL
[19] = Day 8, Continuous Exposure, 0.01 μg/mL
[20] = Day 8, Continuous Exposure, 0.1 μg/mL
[21] = Day 8, Continuous Exposure, 1.0 μg/mL
[22] = Day 8 exposure, 7-day Recovery Post Exposure, 0.01 μg/mL
[23] = Day 8 exposure, 7-day Recovery Post Exposure, 0.1 μg/mL
[24] = Day 8 exposure, 7-day Recovery Post Exposure, 1.0 μg/mL
[25] = Day 10, Continuous Exposure, 0.01 μg/mL
[26] = Day 10, Continuous Exposure, 0.1 μg/mL
[27] = Day 10, Continuous Exposure, 1.0 μg/mL
[28] = Day 10 exposure, 7-day Recovery Post Exposure, 0.01 μg/mL
[29] = Day 10 exposure, 7-day Recovery Post Exposure, 0.1 μg/mL
[30] = Day 10 exposure, 7-day Recovery Post Exposure, 1.0 μg/mL

Compound: C=C1[C@@H](C)[C@H]2[C@H](Cc3ccccc3)NC(=O)[C@]23OC(=O)/C=C/[C@H](O)CCC[C@@H](C)C/C=C/[C@H]3[C@@H]1O [cytochalasin B]
- ability to migrate following removal of the therapeutic agent (0.1 μg/ml, even after 10 days of continuous exposure): +3 to +4
- Migration Grade in an Undisturbed Region of the Well [1]: +3
- Migration Grade in the Cleared Area of the Well [1]: +1
- Migration Grade in an Undisturbed Region of the Well [2]: +3
- Migration Grade in the Cleared Area of the Well [2]: +1
- Migration Grade in an Undisturbed Region of the Well [3]: +2
- Migration Grade in the Cleared Area of the Well [3]: −
- Migration Grade in an Undisturbed Region of the Well [4]: −4
- Migration Grade in the Cleared Area of the Well [4]: +3
- Migration Grade in an Undisturbed Region of the Well [5]: +4
- Migration Grade in the Cleared Area of the Well [5]: +3
- Migration Grade in an Undisturbed Region of the Well [6]: +3
- Migration Grade in the Cleared Area of the Well [6]: +2
- Migration Grade in an Undisturbed Region of the Well [7]: +4
- Migration Grade in the Cleared Area of the Well [7]: +3
- Migration Grade in an Undisturbed Region of the Well [8]: +4
- Migration Grade in the Cleared Area of the Well [8]: +1
- Migration Grade in an Undisturbed Region of the Well [9]: +2
- Migration Grade in the Cleared Area of the Well [9]: −
- Migration Grade in an Undisturbed Region of the Well [10]: −4
- Migration Grade in the Cleared Area of the Well [10]: +3
- Migration Grade in an Undisturbed Region of the Well [11]: +4
- Migration Grade in the Cleared Area of the Well [11]: +3
- Migration Grade in an Undisturbed Region of the Well [12]: +3
- Migration Grade in the Cleared Area of the Well [12]: +2
- Migration Grade in an Undisturbed Region of the Well [13]: +4
- Migration Grade in the Cleared Area of the Well [13]: +3
- Migration Grade in an Undisturbed Region of the Well [14]: +4
- Migration Grade in the Cleared Area of the Well [14]: +2
- Migration Grade in an Undisturbed Region of the Well [15]: +2
- Migration Grade in the Cleared Area of the Well [15]: −
- Migration Grade in an Undisturbed Region of the Well [16]: +4/+4
- Migration Grade in the Cleared Area of the Well [16]: +4/+4
- Migration Grade in an Undisturbed Region of the Well [17]: +4
- Migration Grade in the Cleared Area of the Well [17]: +3
- Migration Grade in an Undisturbed Region of the Well [18]: +3
- Migration Grade in the Cleared Area of the Well [18]: +2
- Migration Grade in an Undisturbed Region of the Well [19]: +4
- Migration Grade in the Cleared Area of the Well [19]: +3
- Migration Grade in an Undisturbed Region of the Well [20]: +4
- Migration Grade in the Cleared Area of the Well [20]: +2
- Migration Grade in an Undisturbed Region of the Well [21]: +2
- Migration Grade in the Cleared Area of the Well [21]: −
- Migration Grade in an Undisturbed Region of the Well [22]: +4/+4
- Migration Grade in the Cleared Area of the Well [22]: +4/+4
- Migration Grade in an Undisturbed Region of the Well [23]: +4
- Migration Grade in the Cleared Area of the Well [23]: +3
- Migration Grade in an Undisturbed Region of the Well [24]: +3
- Migration Grade in the Cleared Area of the Well [24]: +2
- Migration Grade in an Undisturbed Region of the Well [25]: +4
- Migration Grade in the Cleared Area of the Well [25]: +3
- Migration Grade in an Undisturbed Region of the Well [26]: +4
- Migration Grade in the Cleared Area of the Well [26]: +2
- Migration Grade in an Undisturbed Region of the Well [27]: +2
- Migration Grade in the Cleared Area of the Well [27]: −
- Migration Grade in an Undisturbed Region of the Well [28]: +4/+4
- Migration Grade in the Cleared Area of the Well [28]: +4/+4
- Migration Grade in an Undisturbed Region of the Well [29]: +4/+4
- Migration Grade in the Cleared Area of the Well [29]: +4/+4
- Migration Grade in an Undisturbed Region of the Well [30]: +3
- Migration Grade in the Cleared Area of the Well [30]: +2
- migration into the cleared area adjacent to the scratch (dose of 0.1 μg/ml): +1 to +2
- time to resume migration after cells clear the agent (in vitro data): ≤ 24 h
